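Tested at 5 concentrations; 48 h exposure; 96-well plates; endpoints linearly interpolated, else capped at highest concentration. TGI is the concentration that stops growth completely.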
Key:
Test in all cases: NCI anticancer screen, dose series, 48 h
M14 melanoma = tested on: M14 melanoma
MDA-N = tested on: MDA-N
K-562 leukemia = tested on: K-562 leukemia
OVCAR-3 ovarian = tested on: OVCAR-3 ovarian
HCT-116 colon = tested on: HCT-116 colon
MOLT-4 leukemia = tested on: MOLT-4 leukemia
UACC-62 melanoma = tested on: UACC-62 melanoma
EKVX NSCLC = tested on: EKVX NSCLC
UO-31 renal = tested on: UO-31 renal
CAKI-1 renal = tested on: CAKI-1 renal
SK-MEL-2 melanoma = tested on: SK-MEL-2 melanoma
DU-145 prostate = tested on: DU-145 prostate
SN12C renal = tested on: SN12C renal
A549 NSCLC = tested on: A549 NSCLC
A498 renal = tested on: A498 renal
HCC-2998 colon = tested on: HCC-2998 colon
HL-60(TB) leukemia = tested on: HL-60(TB) leukemia
SW-620 colon = tested on: SW-620 colon
IGROV1 ovarian = tested on: IGROV1 ovarian
HOP-92 NSCLC = tested on: HOP-92 NSCLC
MCF7 breast = tested on: MCF7 breast
TK-10 renal = tested on: TK-10 renal
UACC-257 melanoma = tested on: UACC-257 melanoma
KM12 colon = tested on: KM12 colon
NCI-H460 lung = tested on: NCI-H460 lung
RXF 393 renal = tested on: RXF 393 renal
CCRF-CEM leukemia = tested on: CCRF-CEM leukemia
MDA-MB-231 breast = tested on: MDA-MB-231 breast
NCI-H522 lung = tested on: NCI-H522 lung
COLO 205 colon = tested on: COLO 205 colon
T-47D breast = tested on: T-47D breast
786-0 renal = tested on: 786-0 renal
NCI/ADR-RES ovarian = tested on: NCI/ADR-RES ovarian
ACHN renal = tested on: ACHN renal
LOX IMVI melanoma = tested on: LOX IMVI melanoma
SF-539 CNS = tested on: SF-539 CNS
MDA-MB-435 = tested on: MDA-MB-435
MALME-3M melanoma = tested on: MALME-3M melanoma
PC-3 prostate = tested on: PC-3 prostate
SF-268 CNS = tested on: SF-268 CNS
SF-295 CNS = tested on: SF-295 CNS
HCT-15 colon = tested on: HCT-15 colon
NCI-H23 lung = tested on: NCI-H23 lung
OVCAR-8 ovarian = tested on: OVCAR-8 ovarian
SNB-19 CNS = tested on: SNB-19 CNS
HOP-62 NSCLC = tested on: HOP-62 NSCLC
HT29 colon = tested on: HT29 colon
OVCAR-4 ovarian = tested on: OVCAR-4 ovarian
NCI-H226 lung = tested on: NCI-H226 lung
U251 CNS = tested on: U251 CNS
SK-MEL-28 melanoma = tested on: SK-MEL-28 melanoma
SNB-75 CNS = tested on: SNB-75 CNS
SK-OV-3 ovarian = tested on: SK-OV-3 ovarian
OVCAR-5 ovarian = tested on: OVCAR-5 ovarian
HS 578T breast = tested on: HS 578T breast
RPMI-8226 leukemia = tested on: RPMI-8226 leukemia
SK-MEL-5 melanoma = tested on: SK-MEL-5 melanoma
SR leukemia = tested on: SR leukemia

O=C(O)CCSc1nnc(COc2ccc(Cl)cc2)n1-c1ccccc1
TGI (M14 melanoma): > 100 µM
TGI (MDA-N): > 100 µM
TGI (K-562 leukemia): > 100 µM
TGI (OVCAR-3 ovarian): > 100 µM
TGI (HCT-116 colon): > 100 µM
TGI (MOLT-4 leukemia): > 100 µM
TGI (UACC-62 melanoma): > 100 µM
TGI (EKVX NSCLC): > 100 µM
TGI (UO-31 renal): > 100 µM
TGI (CAKI-1 renal): > 100 µM
TGI (SK-MEL-2 melanoma): > 100 µM
TGI (DU-145 prostate): > 100 µM
TGI (SN12C renal): > 100 µM
TGI (A549 NSCLC): > 100 µM
TGI (A498 renal): > 100 µM
TGI (HCC-2998 colon): > 100 µM
TGI (HL-60(TB) leukemia): > 100 µM
TGI (SW-620 colon): > 100 µM
TGI (IGROV1 ovarian): > 100 µM
TGI (HOP-92 NSCLC): > 100 µM
TGI (MCF7 breast): > 100 µM
TGI (TK-10 renal): > 100 µM
TGI (UACC-257 melanoma): > 100 µM
TGI (KM12 colon): > 100 µM
TGI (NCI-H460 lung): > 100 µM
TGI (RXF 393 renal): > 100 µM
TGI (CCRF-CEM leukemia): > 100 µM
TGI (MDA-MB-231 breast): > 100 µM
TGI (NCI-H522 lung): > 100 µM
TGI (COLO 205 colon): > 100 µM
TGI (T-47D breast): > 100 µM
TGI (786-0 renal): > 100 µM
TGI (NCI/ADR-RES ovarian): > 100 µM
TGI (ACHN renal): > 100 µM
TGI (LOX IMVI melanoma): > 100 µM
TGI (SF-539 CNS): > 100 µM
TGI (MDA-MB-435): > 100 µM
TGI (MALME-3M melanoma): > 100 µM
TGI (PC-3 prostate): > 100 µM
TGI (SF-268 CNS): > 100 µM
TGI (SF-295 CNS): > 100 µM
TGI (HCT-15 colon): > 100 µM
TGI (NCI-H23 lung): > 100 µM
TGI (OVCAR-8 ovarian): > 100 µM
TGI (SNB-19 CNS): > 100 µM
TGI (HOP-62 NSCLC): > 100 µM
TGI (HT29 colon): > 100 µM
TGI (OVCAR-4 ovarian): > 100 µM
TGI (NCI-H226 lung): > 100 µM
TGI (U251 CNS): > 100 µM
TGI (SK-MEL-28 melanoma): > 100 µM
TGI (SNB-75 CNS): > 100 µM
TGI (SK-OV-3 ovarian): > 100 µM
TGI (OVCAR-5 ovarian): > 100 µM

O=Cc1ccc2c(c1)CC1(C2)Cc2ccc(C=O)cc2C1
TGI (HS 578T breast): 28.7 µM
TGI (M14 melanoma): 19.7 µM
TGI (RPMI-8226 leukemia): 22.1 µM
TGI (MDA-N): 5.99 µM
TGI (K-562 leukemia): 12.9 µM
TGI (OVCAR-3 ovarian): 34.1 µM
TGI (HCT-116 colon): 19.6 µM
TGI (MOLT-4 leukemia): 7.11 µM
TGI (UACC-62 melanoma): 23.8 µM
TGI (EKVX NSCLC): > 100 µM
TGI (UO-31 renal): > 50.6 µM
TGI (CAKI-1 renal): > 100 µM
TGI (SK-MEL-2 melanoma): 30.8 µM
TGI (SK-MEL-5 melanoma): 16.7 µM
TGI (DU-145 prostate): > 100 µM
TGI (SN12C renal): 64.5 µM
TGI (A549 NSCLC): > 95.3 µM
TGI (A498 renal): 69.7 µM
TGI (HCC-2998 colon): > 91.8 µM
TGI (HL-60(TB) leukemia): 5.72 µM
TGI (SW-620 colon): 39.2 µM
TGI (IGROV1 ovarian): 54.5 µM
TGI (HOP-92 NSCLC): 53.2 µM
TGI (MCF7 breast): > 70 µM
TGI (TK-10 renal): 65 µM
TGI (UACC-257 melanoma): 40.5 µM
TGI (KM12 colon): 60.4 µM
TGI (NCI-H460 lung): 32.8 µM
TGI (RXF 393 renal): > 25.4 µM
TGI (CCRF-CEM leukemia): 5.9 µM
TGI (MDA-MB-231 breast): 34.1 µM
TGI (NCI-H522 lung): 54.9 µM
TGI (COLO 205 colon): 70.9 µM
TGI (T-47D breast): 71.8 µM
TGI (786-0 renal): 32 µM
TGI (NCI/ADR-RES ovarian): 32.5 µM
TGI (ACHN renal): 62.1 µM
TGI (LOX IMVI melanoma): 21.8 µM
TGI (SF-539 CNS): 15.1 µM
TGI (MDA-MB-435): 6.15 µM
TGI (MALME-3M melanoma): 46.1 µM
TGI (PC-3 prostate): 43.3 µM
TGI (SR leukemia): 6.77 µM
TGI (SF-268 CNS): 44.6 µM
TGI (SF-295 CNS): > 70.4 µM
TGI (HCT-15 colon): > 46.6 µM
TGI (NCI-H23 lung): 49.8 µM
TGI (OVCAR-8 ovarian): 31.3 µM
TGI (SNB-19 CNS): 89.2 µM
TGI (HOP-62 NSCLC): 37.2 µM
TGI (HT29 colon): 53.6 µM
TGI (OVCAR-4 ovarian): > 69.7 µM
TGI (NCI-H226 lung): 62.6 µM
TGI (U251 CNS): 41.7 µM
TGI (SK-MEL-28 melanoma): 59.1 µM
TGI (SNB-75 CNS): > 100 µM
TGI (SK-OV-3 ovarian): > 100 µM
TGI (OVCAR-5 ovarian): > 100 µM

Reference: PubChem BioAssay (NCI)
